# Patent US20210077501A1, “COMPOSITIONS FOR PREVENTING OR TREATING UVEITIS” (Chong Kun Dang Pharmaceutical Corp., priority 2018, published 2021)
# What was measured:
# [1] = system: TNFα secretion in LPS-stimulated human monocyte cell lines (THP-1); experiment: Suppression of TNFα secretion in LPS-stimulated THP-1 cells (ELISA); assay type: cell-based
# Experimental: To identify the efficacy of the inventive compounds on suppressing a TNFα secretion in immune responses, suppression of TNFα production, which was achieved by a treatment with compounds 374, 461, 500, 530 and 532 according to the present invention in LPS-stimulated human monocyte cell lines (THP-1), was quantified by means of an enzyme immuno-assay (ELISA).
# Specifically, the THP-1 cell lines (ATCC) were cultured in an RPMI-1640 medium comprising 10% FBS. The cell lines were divided into a 24 well plate at a ratio of 1×10^5 cells per well, then treated with 100 ng/mL PMA (phorbol 12-myristate 13-acetate) for 24 hours, and then differentiated into macrophage. Then, the culture medium was replaced with a new one, then treated with a test drug for 24 hours, and then treated again with 10 ng/mL LPS (E.Coli, O55:B5) for four hours for stimulation. After that, supernatant was taken and used to measure the amount of TNFα secreted from the cells by means of a Human TNFα Instant ELISA kit (eBioscience, BMS223INST) according to a protocol provided by a manufacturer.
# [2] = system: reactive T cells; experiment: Treg suppression assay: proliferation of reactive T cells (eFluor670 dilution, flow cytometry); assay type: cell-based, mouse; conditions: Teff:Treg 2:1, three days; concentration not specified
# Experimental: To identify the efficacy of the inventive compounds on suppressing the proliferation of reactive T cells in immune responses, compounds 255, 280, 374, 416 and 476 according to the present invention were cultured together with reactive T cells and regulatory T cells […], and then the suppressive efficacy of regulatory T cells was measured.
# Specifically, a six-week old C57BL6 male mice were supplied from Central Lab Animal Inc., then acclimated for one week, and then used in an experiment. A spleen was isolated from the mouse, and then treated with collagenase D (Roche, 11088866001), such that splenocytes were isolated therefrom. […] were isolated by means of a CD4+CD25+ regulatory T cell isolation kit (Miltenyi Biotec, 130-091-041) according to a protocol provided by a manufacturer. Teff cells were cultured at 37° C. for ten minutes by means of eFluor®670 (Cell proliferation Dye eFluor®670, eBioscience), such that cell membranes were stained. Teff and Treg were divided into a 96 well plate at a ratio of 2:1, and then T cells were activated for three days by means of an anti-CD3E and anti-CD28 mAb magnetic bead (T cell activation/expansion kit, Miltenyi Biotec, 130-093627), such that Treg suppression assay was performed. A test drug was simultaneously treated for three days, during which the assay was performed. The divided amount of eFluor®670 labeled on the Teff cell membranes was measured, such that a degree of proliferation of T cells was evaluated accordingly. An eFluor®670-dilution plot was measured by means of a flow cytometer (FACS LSR Fortessa, BD bioscience). The suppressive ability on T cells proliferation was calculated by means of a following equation.
# [3] = system: experimental autoimmune uveitis (EAU) mouse; experiment: ELISA of IFN-γ and IL-17A from spleen mononuclear cells of the EAU mouse; assay type: in vivo
# [4] = system: experimental autoimmune uveitis (EAU) mouse; experiment: Real-time PCR of HDAC6 and inflammatory cytokines in the retina of the EAU mouse; assay type: in vivo; conditions: for expression level of HDAC6 / expression level of IL-1β / expression level of IL-17 / expression level of INF-γ / expression level of TNF-α: retina
# [5] = system: CTLA4 (cytotoxic T-lymphocyte-associated protein 4) in the regulatory T cells; experiment: CTLA4 expression in regulatory T cells (iTreg) by flow cytometry; assay type: cell-based, mouse; conditions: iTreg, six days treatment; concentration not specified
# Experimental: To identify if the compounds according to the present invention regulate a function of regulatory T cells in immune responses, compounds 255, 280, 374, 416 and 476 were treated, and then an expression level of an immune checkpoint receptor CTLA4 (cytotoxic T-lymphocyte-associated protein 4) in the regulatory T cells was measured by means of flow cytometry.
# Specifically, a six-week old C57BL6 male mice were supplied from Central Lab Animal Inc., then acclimated for one week, and then used in an experiment. A spleen was isolated from the mouse, and then treated with collagenase D (Roche, 11088866001), such that splenocytes were isolated therefrom. CD4+CD25-T cells were isolated by means of a CD4+CD25+ regulatory T cell isolation kit (Miltenyi Biotec, 130-091-041), and then CD4+CD25-T cells (at a ratio of 5×10^5 cells/well) were treated with an anti-CD3E/anti-CD28 mAb bead (T cell activation/expansion kit, Miltenyi Biotec, 130-093627) and a mouse recombinant TGF-β2 for six days, such that they were differentiated into iTreg. A test drug was simultaneously treated for six days, during which the cells were differentiated into iTreg. After that, the cells were incubated by means of anti-CD4/anti-CD25 mAb (eBioscience, 25-0042-82, 17-0251-82) at 4° C. for 20 minutes, and then labeling was performed. For intracytoplasmic staining, permeabilization was performed by means of Fix/permeabilization buffer (eBioscience, 00-5523-00), then labeling was performed by means of anti-FOXP3-Alexafluor488 (eBioscience, 53-5773-82) and anti-CTLA4-PE (eBioscience, 12-1522-82), and then flow cytometry was performed by means of FACS LSR Fortessa (BD bioscience).
# [6] = system: experimental autoimmune uveitis (EAU) mouse; experiment: Clinical grading of uveitis in the EAU mouse (fundoscopy); assay type: in vivo
# [7] = system: experimental autoimmune uveitis (EAU) mouse; experiment: FACS of immune cells in retina and draining lymph node of the EAU mouse; assay type: in vivo
# [8] = system: experimental autoimmune uveitis (EAU) mouse; experiment: Immunofluorescent staining of immunomarkers in the retina of the EAU mouse; assay type: in vivo
# [9] = system: experimental autoimmune uveitis (EAU) mouse; experiment: H&E staining of histopathological lesions in the retina of the EAU mouse; assay type: in vivo; conditions: 0.3% eye drop twice a day, Day 21
# [10] = spleen MNC stimulated with IRBP peptide 72 hours, eye drop administration group
# [11] = i.p. administration group (10 or 30 mg/kg once a day)
# [12] = lymph node tissues, eye drop administration group
# [13] = lymph nodes, i.p. administration group
# [14] = retina tissues, eye drop administration group
# [15] = EAU mouse, eye drop administration group
smiles,measurement,setting,value
"O=C(NO)c1ccc(CN(C(=O)N2CCOCC2)c2cccc(C(F)(F)F)c2)cc1 [Compound 374, N-(4-(hydroxycarbamoyl)benzyl)-N-(3-(trifluoromethyl)phenyl)morpholine-4-carboxamide]",level of TNFα secretion,"[1]; THP-1, LPS, at both 100 nM and 300 nM",remarkably decreased down to a level at which no inflammatory response was induced by means of the LPS
same,level of TNFα secretion,"[1]; in comparison with LPS-induced control group, THP-1, concentration not specified",excellent effect
same,proliferation of the reactive T cells,[2],excellent effect
same,inhibiting an expression of inflammatory cytokines in a spleen,"[3]; animal model for an induced uveitis disease, summary (FIG. 11)",excellent effect
same,level of IL-17A,[3]; [10],significantly decreased
same,level of INF-γ,[3]; [10],significantly decreased
same,inhibiting an expression of inflammatory cytokines in inflammation regions,"[4]; animal model for an induced uveitis disease, summary (FIG. 12)",excellent effect
same,expression level of HDAC6,[4]; eye drop administration group,significantly decreased and recovered to the level of the normal mouse
same,expression level of IL-1β,[4]; eye drop administration group,significantly decreased and recovered to the level of the normal mouse
same,expression level of IL-17,[4]; eye drop administration group,significantly decreased and recovered to the level of the normal mouse
same,expression level of INF-γ,[4]; eye drop administration group,significantly decreased and recovered to the level of the normal mouse
same,expression level of TNF-α,[4]; eye drop administration group,significantly decreased and recovered to the level of the normal mouse
same,expression level of HDAC6,[4]; [11],significantly decreased and recovered to the level of the normal mouse
same,expression level of IL-1β,[4]; [11],significantly decreased and recovered to the level of the normal mouse
same,expression level of IL-17,[4]; [11],significantly decreased and recovered to the level of the normal mouse
same,expression level of INF-γ,[4]; [11],significantly decreased and recovered to the level of the normal mouse
same,expression level of TNF-α,[4]; [11],significantly decreased and recovered to the level of the normal mouse
same,level of CTLA4 expression in the T cells (function of regulatory T cells),[5],excellent effect
same,clinical grade of uveitis,"[6]; EAU mouse, 0.3% eye drop twice a day from Day 11, Day 21, scale Grade 0-4",≤ 0.5 Grade
same,decreasing a uveitis lesion,"[6]; animal model for an induced uveitis disease, summary (FIGS. 4 to 6)",excellent effect
same,decreasing the number of immune cells in a retina and a lymph node,"[7]; animal model for an induced uveitis disease, summary (FIGS. 13 to 21)",excellent effect
same,number of IL-IP(+) cells,[7]; [12],significantly decreased
same,number of INF-γ(+)/CD4(+) cells,[7]; [12],significantly decreased
same,number of INF-γ(+)/CD4(+) cells,"[7]; lymph node tissues, i.p. administration group",significantly decreased
same,number of CD11b(+) cells,[7]; [13],decreased
same,number of CD19(+) cells,[7]; [13],decreased
same,number of F4/80(+) cells,[7]; [13],decreased
same,number of IL-IP(+) cells,[7]; [14],significantly decreased
same,number of INF-γ(+)/CD4(+) cells,[7]; [14],significantly decreased
same,number of INF-γ(+)/CD4(+) cells,"[7]; retina tissues, i.p. administration group, 10 mg/kg",significantly decreased
same,number of INF-γ(+)/CD4(+) cells,"[7]; retina tissues, i.p. administration group, 30 mg/kg",significantly decreased
same,B220 (B cell marker) in retina,[8]; [15],did not show an obvious change
same,CD3(+) cell (T cell marker) in retina,[8]; [15],significantly decreased to a similar level to that of a normal mouse
same,infiltration of CD4(+) immune cells into a retina tissue,[8]; [15],clearly decreased and remained only under the retina
same,inhibiting an infiltration of inflammatory cells,"[8]; animal model for an induced uveitis disease, summary (FIGS. 7 to 10)",excellent effect
same,inflammatory lesions in retina tissues (H&E),[9],significantly decreased
